Patent US6518284B2, “4-substituted piperidines” (Faes, Fabrica Espanola de Productos Quimicos Y …, priority 1999, dated 2003)
Like-named read-outs stand apart in the source and are kept apart here.

Columns and labels:
Format in all cases: binding
[1] = target: T1, Dopamine uptake sites (transporters) (Rattus norvegicus, UniProt P23977); experiment: Affinity for dopamine uptake sites (transporters), rat brain; details: read-out: K1 values, Dopamine uptake sites (transporters)
T1 construct: Uptake sites (transporters); Rat brain; from tissue; host or cells: rat brain
T1 sequence (P23977 whole entry): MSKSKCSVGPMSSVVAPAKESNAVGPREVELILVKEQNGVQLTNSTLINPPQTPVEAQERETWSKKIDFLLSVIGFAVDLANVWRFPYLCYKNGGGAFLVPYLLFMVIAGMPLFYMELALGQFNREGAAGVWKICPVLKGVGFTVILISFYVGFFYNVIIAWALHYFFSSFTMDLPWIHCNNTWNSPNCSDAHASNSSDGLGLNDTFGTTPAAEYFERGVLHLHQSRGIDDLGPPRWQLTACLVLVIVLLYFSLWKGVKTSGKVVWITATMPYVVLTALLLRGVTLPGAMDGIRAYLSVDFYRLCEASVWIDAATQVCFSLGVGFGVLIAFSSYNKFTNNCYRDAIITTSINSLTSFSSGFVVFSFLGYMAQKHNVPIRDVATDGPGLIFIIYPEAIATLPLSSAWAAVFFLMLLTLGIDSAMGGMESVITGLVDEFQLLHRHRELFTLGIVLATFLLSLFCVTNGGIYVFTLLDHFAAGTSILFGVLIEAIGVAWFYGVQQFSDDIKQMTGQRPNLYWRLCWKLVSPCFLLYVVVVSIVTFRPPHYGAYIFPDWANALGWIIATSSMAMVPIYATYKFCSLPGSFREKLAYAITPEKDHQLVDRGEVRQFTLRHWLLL

[2] = target: noradrenaline (NA) reuptake receptors / Noradrenaline uptake sites (transporters) (Rattus norvegicus, UniProt Q63380); experiment: Affinity for noradrenaline reuptake sites, [3H]-nisoxetine radioligand, rat cerebral cortex; details: Rat brain, read-out: K1 values, Noradrenaline uptake sites (transporters)
Sequence of noradrenaline (NA) reuptake receptors / Noradrenaline uptake sites (transporters) (Q63380 1-617): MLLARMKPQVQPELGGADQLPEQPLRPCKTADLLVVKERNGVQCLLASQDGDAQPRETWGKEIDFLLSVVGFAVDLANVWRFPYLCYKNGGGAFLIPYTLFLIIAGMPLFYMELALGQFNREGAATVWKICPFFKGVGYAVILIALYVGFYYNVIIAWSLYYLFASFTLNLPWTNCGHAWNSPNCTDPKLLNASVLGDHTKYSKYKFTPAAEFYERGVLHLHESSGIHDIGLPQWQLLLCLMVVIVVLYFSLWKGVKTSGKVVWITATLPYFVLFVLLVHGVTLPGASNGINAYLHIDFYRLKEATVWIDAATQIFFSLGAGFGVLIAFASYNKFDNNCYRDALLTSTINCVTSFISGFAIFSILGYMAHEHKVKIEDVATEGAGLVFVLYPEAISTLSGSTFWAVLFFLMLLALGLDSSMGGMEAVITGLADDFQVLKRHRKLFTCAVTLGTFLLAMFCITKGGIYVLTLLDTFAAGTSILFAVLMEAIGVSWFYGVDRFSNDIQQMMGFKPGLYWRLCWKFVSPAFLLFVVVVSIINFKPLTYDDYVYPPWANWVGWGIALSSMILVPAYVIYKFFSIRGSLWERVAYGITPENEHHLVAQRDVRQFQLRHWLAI
Description: (§1) The pharmacological activity of the compounds of general formula (I) was determnined-using well-established in vitro and in vivo pharmacological processes.

[3] = target: T2, serotonin reuptake receptors (5HT) / Serotonin uptake sites (transporters) (Rattus norvegicus, UniProt P31652); experiment: Affinity for serotonin reuptake sites, [3H]-paroxetine radioligand, rat cerebral cortex; details: Rat brain; read-out: K1 values, Serotonin uptake sites (transporters)
T2 construct: from tissue; host or cells: rat cerebral cortex
T2 sequence (P31652 whole entry): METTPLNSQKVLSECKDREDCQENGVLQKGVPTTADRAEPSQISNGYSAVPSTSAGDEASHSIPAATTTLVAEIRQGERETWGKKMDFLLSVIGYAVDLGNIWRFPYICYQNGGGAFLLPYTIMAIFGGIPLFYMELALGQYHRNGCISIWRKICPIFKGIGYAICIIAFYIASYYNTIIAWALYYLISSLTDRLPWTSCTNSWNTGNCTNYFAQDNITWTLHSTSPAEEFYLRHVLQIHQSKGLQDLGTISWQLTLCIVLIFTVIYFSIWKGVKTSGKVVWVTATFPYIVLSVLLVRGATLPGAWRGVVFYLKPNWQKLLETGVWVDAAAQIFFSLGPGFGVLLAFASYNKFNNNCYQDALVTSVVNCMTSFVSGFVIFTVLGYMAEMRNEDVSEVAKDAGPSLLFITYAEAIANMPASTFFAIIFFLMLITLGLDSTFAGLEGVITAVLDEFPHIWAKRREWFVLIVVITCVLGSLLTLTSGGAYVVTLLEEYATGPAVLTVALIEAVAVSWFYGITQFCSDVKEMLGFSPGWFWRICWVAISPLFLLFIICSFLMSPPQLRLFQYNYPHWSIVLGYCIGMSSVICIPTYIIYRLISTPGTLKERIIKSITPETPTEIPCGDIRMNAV
Description: as §1

SMILES	Ki ([1]; bounds given in μM) [µM]	Ki [2] [µM]	Ki [3] [µM]	Ki [1] [µM]	Ki ([2]; bounds given in μM) [µM]
Clc1cccc(O[C@H](c2ccccc2)C2CCNCC2)c1 [Compound F-98620-TA]	> 1	–	–	–	–
Fc1cccc(O[C@@H](c2cccc(F)c2)C2CCNCC2)c1 [Compound F-98829-PD]	> 1	0.0175	0.00283	–	–
Fc1ccc(O[C@@H](c2ccccc2)C2CCNCC2)cc1 [Compound F-97814-TA]	–	–	0.00045	0.821	–
Fc1cc(F)cc(O[C@H](c2ccccc2)C2CCNCC2)c1 [Compound F-98814-TA]	> 1	0.0248	0.0014	–	–
Fc1cccc(O[C@@H](c2ccccc2)C2CCNCC2)c1 [Compound F-98212-TA]	> 1	0.107	–	–	–
Fc1cccc([C@@H](Oc2ccccc2F)C2CCNCC2)c1 [Compound F-98925-PD]	–	0.0481	0.0276	0.377	–
N#Cc1cccc(O[C@H](c2ccccc2)C2CCNCC2)c1 [Compound F-98715-TA]	–	0.0869	0.00168	0.11	–
Clc1cccc(O[C@@H](c2ccccc2)C2CCNCC2)c1 [Compound F-98616-TA]	> 1	0.0558	–	–	–
O=[N+]([O-])c1ccc(OC(c2ccccc2)C2CCNCC2)cc1 (stereo not drawn) [Compound F-98610-PD]	> 1	–	0.0151	–	> 1
Fc1ccccc1O[C@H](c1ccccc1)C1CCNCC1 [Compound F-98607-PD]	> 1	0.0225	0.0042	–	–
Fc1cc(F)cc(O[C@@H](c2ccccc2)C2CCNCC2)c1 [Compound F-98822-TA]	> 1	0.386	0.00709	–	–
Fc1cccc([C@H](Oc2ccccc2F)C2CCNCC2)c1 [Compound F-98917-PD]	> 1	0.0191	0.0043	–	–
N#Cc1cccc(OC(c2ccccc2)C2CCNCC2)c1 (stereo not drawn) [Compound F-98716-TA]	> 1	0.18	0.00143	–	–
Fc1cccc(O[C@H](c2cccc(F)c2)C2CCNCC2)c1 [Compound F-98828-PD]	–	0.128	0.00999	0.113	–
Fc1ccccc1O[C@@H](c1ccccc1)C1CCNCC1 [Compound F-98718-PD]	–	0.0414	0.0285	0.52	–
Fc1ccc(O[C@H](c2ccccc2)C2CCNCC2)cc1 [Compound F-97815-TA]	–	1.45	0.0459	0.253	–
FC(F)(F)c1ccc(O[C@H](c2ccccc2)C2CCNCC2)cc1 [Compound F-98408-TA]	> 1	–	0.0348	–	> 10
Fc1cccc(O[C@H](c2ccccc2)C2CCNCC2)c1 [Compound F-98214-TA]	–	0.0135	–	0.461	–
FC(F)(F)c1ccc(OC(c2ccccc2)C2CCNCC2)cc1 (stereo not drawn) [Compound F-98404-TA]	> 1	–	0.0149	–	> 10
O=[N+]([O-])c1ccc(O[C@H](c2ccccc2)C2CCNCC2)cc1 [Compound F-98603-PD]	> 10	–	0.00063	–	> 1
